Holding throughout (assay type): in vivo, Danae racemosa L.
The test system of series [1] is Alexandrian laurel seedlings. Briefly: Culture of germinated seeds in BA-supplemented Woody Plant Medium. The procedure: All cultures described herein were transferred onto fresh media every 4 weeks and incubated in a plant tissue culture grade growth chamber under a 16-h photoperiod and a photo flux density of 37.6±4.8 μmol s^−1m^−2 light per day provided by cool white fluorescent tubes at 23±0.1° C., unless otherwise noted. At 10 weeks, a group of germinated seeds from Example 1 was removed from agar medium containing GA3 and transferred to a supplemented WPM culture further comprising BA (at 1.0, 2.0, or 3.0 mg/L, respectively 4.44, 8.88, or 13.32 μM).

The subject of a further series is Alexandrian laurel seed. The series is described as follows: In vitro germination of seeds in agar medium containing GA3. The method, then: Seeds were purchased (Gethsemane Garden and Landscape Services, Inc., Greensboro, N.C.) and disinfected in a 20% bleach solution plus 20 drops Tween-20 per liter for 20 minutes and then rinsed immediately 3 times with sterile purified water.
The disinfected seeds were subsequently transferred to test tubes containing agar medium and 10 ppm GA3. The medium pH was adjusted to 5.8 with 1N KOH or 1 N HCl. The culture medium was sterilized by autoclaving at 121° C. (106 kPa) for 20 minutes.
(§1) All cultures described herein were transferred onto fresh media every 4 weeks and incubated in a plant tissue culture grade growth chamber under a 16-h photoperiod and a photo flux density of 37.6±4.8 μmol s^−1m^−2 light per day provided by cool white fluorescent tubes at 23±0.1° C., unless otherwise noted.
The seeds were prepared according to Materials and Methods above.
The micropropagated plantlets were then potted in soil and transferred to a greenhouse.

In series [2] the test system is Alexandrian laurel seedlings. Briefly: Culture of germinated seeds in TDZ-supplemented Woody Plant Medium. The method, then: as §1
At 10 weeks, a group of germinated seeds from Example 1 was removed from agar medium containing GA3 and transferred to a supplemented WPM culture further comprising TDZ (at 1.0, 2.0, or 3.0 mg/L, respectively 4.54, 9.08, or 13.62 μM).

SMILES strings stand for the structures.

Take `c1ccc(CNc2ncnc3nc[nH]c23)cc1` [BA, 6-benzylamino purine]: the seedling development entry in series [1] (early growth after the initial seed germination in the presence of BA) is “balanced seedling development by simultaneously promoting shoot growth and slowing down root growth”. Also, the “shoot and root growth of young seedlings compared to Example 1A” value in series [1] (supplemented WPM with BA at 1.0, 2.0 or 3.0 mg/L, about 4 weeks (FIG. 2)) is “more balanced shoot and root growth”.

On to `C=C1C[C@]23C[C@@]1(O)CC[C@H]2[C@@]12C=C[C@H](O)[C@@](C)(C(=O)O1)[C@H]2[C@@H]3C(=O)O` [GA3, gibberellic acid], for which the “root and shoot growth of germinated seeds” value with Alexandrian laurel seed (agar medium containing GA3, at 10 weeks (FIG. 1)) was “a lot of root growth and little shoot growth”. Further, the seed germination result with Alexandrian laurel seed (agar medium with 10 ppm GA3, about 10 weeks) was “a majority of the seeds had germinated”.

Regarding `O=C(Nc1ccccc1)Nc1cnns1` [TDZ, [1-phenyl-3-(1,2,3-thidiazol-5-yl)urea]], in series [2] (after 50 days of treatment in TDZ supplemented WPM), the “appearance of root growth points” value is “root growth points began to turn brown”. The shoots per seed in series [2] (early growth after the initial seed germination in the presence of TDZ) is listed as 5-10 shoots per seed. Moreover, in series [2] (supplemented WPM with TDZ at 1.0, 2.0 or 3.0 mg/L, about 50 days (FIG. 3)), the shoot formation result was “multiple shoots from each seed”.

Source of the values: patent US20170127674A1, “MICROPROPAGATION OF ALEXANDRIAN LAUREL (DANAE RACEMOSA L)” (North Carolina A&T State University, priority 2012, published 2017).
